The CheMixHub ionic liquid set
± gives the uncertainty stated by the source.

Assay: xn = mol fraction of the nth substance listed

## CCCC[n+]1ccn(C)c1.F[B-](F)(F)F + O
288.15 K, 100 kPa, x1 = 5.584e-05
  electrical conductivity: 0.0319 ± 0.00068 S/m
288.15 K, 100.3 kPa, x1 = 0.0005439
  viscosity: 1.148 ± 0.011 mPa·s
288.15 K, 100.3 kPa, x1 = 0.0009901
  viscosity: 1.163 ± 0.011 mPa·s
288.15 K, 100.3 kPa, x1 = 0.003018
  viscosity: 1.205 ± 0.011 mPa·s
288.15 K, 100.3 kPa, x1 = 0.00501
  viscosity: 1.247 ± 0.012 mPa·s
288.15 K, 100.3 kPa, x1 = 0.006973
  viscosity: 1.283 ± 0.012 mPa·s
288.15 K, 100.3 kPa, x1 = 0.009052
  viscosity: 1.332 ± 0.012 mPa·s
288.15 K, 100.3 kPa, x1 = 0.01199
  viscosity: 1.394 ± 0.012 mPa·s
288.15 K, 100.3 kPa, x1 = 0.01499
  viscosity: 1.46 ± 0.013 mPa·s
288.15 K, 100.3 kPa, x1 = 0.017
  viscosity: 1.506 ± 0.013 mPa·s
293.15 K, 100 kPa, x1 = 0.0003603
  viscosity: 1.03 ± 0.061 mPa·s
293.15 K, 100 kPa, x1 = 0.0003729
  viscosity: 1.03 ± 0.061 mPa·s
293.15 K, 100 kPa, x1 = 0.0007203
  viscosity: 1.062 ± 0.061 mPa·s
293.15 K, 100 kPa, x1 = 0.0007257
  viscosity: 1.062 ± 0.061 mPa·s
293.15 K, 100 kPa, x1 = 0.00108
  viscosity: 1.093 ± 0.061 mPa·s
293.15 K, 100 kPa, x1 = 0.0011
  viscosity: 1.093 ± 0.061 mPa·s
293.15 K, 100.3 kPa, x1 = 0.0005439
  viscosity: 1.012 ± 0.01 mPa·s
293.15 K, 100.3 kPa, x1 = 0.0009901
  viscosity: 1.024 ± 0.01 mPa·s
293.15 K, 100.3 kPa, x1 = 0.003018
  viscosity: 1.058 ± 0.01 mPa·s
293.15 K, 100.3 kPa, x1 = 0.00501
  viscosity: 1.095 ± 0.011 mPa·s
293.15 K, 100.3 kPa, x1 = 0.006973
  viscosity: 1.126 ± 0.011 mPa·s
293.15 K, 100.3 kPa, x1 = 0.009052
  viscosity: 1.168 ± 0.011 mPa·s
293.15 K, 100.3 kPa, x1 = 0.01199
  viscosity: 1.221 ± 0.011 mPa·s
293.15 K, 100.3 kPa, x1 = 0.01499
  viscosity: 1.277 ± 0.012 mPa·s
293.15 K, 100.3 kPa, x1 = 0.017
  viscosity: 1.315 ± 0.012 mPa·s
293.15 K, 101 kPa, x2 = 0.03402
  viscosity: 115.2 ± 3.6 mPa·s
293.15 K, 101 kPa, x2 = 0.06153
  viscosity: 102.2 ± 3.1 mPa·s
293.15 K, 101 kPa, x2 = 0.1014
  electrical conductivity: 0.5 ± 0.03 S/m
293.15 K, 101 kPa, x2 = 0.3977
  viscosity: 26.7 ± 2.4 mPa·s
293.2 K, 101 kPa, frequency 6e-05 MHz, x2 = 0.2
  electrical conductivity: 0.897 ± 0.009 S/m
293.2 K, 101 kPa, frequency 6e-05 MHz, x2 = 0.4
  electrical conductivity: 1.401 ± 0.014 S/m
293.2 K, 101 kPa, frequency 6e-05 MHz, x2 = 0.6
  electrical conductivity: 2.25 ± 0.023 S/m
293.2 K, 101 kPa, frequency 6e-05 MHz, x2 = 0.8
  electrical conductivity: 3.53 ± 0.035 S/m
298.15 K, 100 kPa, x1 = 3.988e-05
  electrical conductivity: 0.0281 ± 0.00069 S/m
298.15 K, 100 kPa, x1 = 0.0003603
  viscosity: 0.917 ± 0.06 mPa·s
298.15 K, 100 kPa, x1 = 0.0003729
  viscosity: 0.917 ± 0.061 mPa·s
298.15 K, 100 kPa, x1 = 0.0007203
  viscosity: 0.951 ± 0.061 mPa·s
298.15 K, 100 kPa, x1 = 0.0007257
  viscosity: 0.951 ± 0.061 mPa·s
298.15 K, 100 kPa, x1 = 0.00108
  viscosity: 0.983 ± 0.061 mPa·s
298.15 K, 100 kPa, x1 = 0.0011
  viscosity: 0.983 ± 0.061 mPa·s
298.15 K, 100 kPa, x2 = 0.9487
  viscosity: 1.99 ± 0.1 mPa·s
298.15 K, 100.3 kPa, x1 = 0.0005439
  viscosity: 0.8998 ± 0.0097 mPa·s
298.15 K, 100.3 kPa, x1 = 0.0009901
  viscosity: 0.9108 ± 0.0098 mPa·s
298.15 K, 100.3 kPa, x1 = 0.003018
  viscosity: 0.9406 ± 0.0099 mPa·s
298.15 K, 100.3 kPa, x1 = 0.00501
  viscosity: 0.9719 ± 0.01 mPa·s
298.15 K, 100.3 kPa, x1 = 0.006973
  viscosity: 0.9993 ± 0.01 mPa·s
298.15 K, 100.3 kPa, x1 = 0.009052
  viscosity: 1.036 ± 0.01 mPa·s
298.15 K, 100.3 kPa, x1 = 0.01199
  viscosity: 1.081 ± 0.011 mPa·s
298.15 K, 100.3 kPa, x1 = 0.01499
  viscosity: 1.128 ± 0.011 mPa·s
298.15 K, 100.3 kPa, x1 = 0.017
  viscosity: 1.162 ± 0.011 mPa·s
298.15 K, 101 kPa, x2 = 0
  electrical conductivity: 0.194 ± 0.023 S/m
  viscosity: 116 ± 40 mPa·s
298.15 K, 101 kPa, x2 = 0.06153
  viscosity: 79.4 ± 1.9 mPa·s
298.15 K, 101 kPa, x2 = 0.1036
  electrical conductivity: 0.274 ± 0.033 S/m
  viscosity: 81 ± 16 mPa·s
298.15 K, 101 kPa, x2 = 0.1135
  viscosity: 64.3 ± 1.7 mPa·s
298.15 K, 101 kPa, x2 = 0.1877
  electrical conductivity: 0.374 ± 0.045 S/m
  viscosity: 59.5 ± 4.5 mPa·s
298.15 K, 101 kPa, x2 = 0.2879
  electrical conductivity: 0.528 ± 0.063 S/m
  viscosity: 42.1 ± 4.2 mPa·s
298.15 K, 101 kPa, x2 = 0.3977
  viscosity: 22.3 ± 1.8 mPa·s
298.15 K, 101 kPa, x2 = 0.4094
  electrical conductivity: 0.83 ± 0.1 S/m
  viscosity: 28.1 ± 2.8 mPa·s
298.15 K, 101 kPa, x2 = 0.4954
  electrical conductivity: 1.21 ± 0.15 S/m
  viscosity: 20.8 ± 2.1 mPa·s
298.15 K, 101 kPa, x2 = 0.5908
  electrical conductivity: 1.65 ± 0.2 S/m
  viscosity: 14.6 ± 1.6 mPa·s
298.15 K, 101 kPa, x2 = 0.6979
  electrical conductivity: 2.42 ± 0.29 S/m
  viscosity: 9.5 ± 1.1 mPa·s
298.15 K, 101 kPa, x2 = 0.7971
  electrical conductivity: 3.38 ± 0.41 S/m
  viscosity: 5.92 ± 0.74 mPa·s
298.15 K, 101 kPa, x2 = 0.8493
  electrical conductivity: 4.79 ± 0.29 S/m
298.15 K, 101 kPa, x2 = 0.8953
  electrical conductivity: 4.01 ± 0.48 S/m
  viscosity: 3.2 ± 0.43 mPa·s
298.15 K, 101 kPa, x2 = 0.9496
  electrical conductivity: 4.83 ± 0.29 S/m
298.2 K, 101 kPa, frequency 6e-05 MHz, x2 = 0.2
  electrical conductivity: 1.026 ± 0.01 S/m
298.2 K, 101 kPa, frequency 6e-05 MHz, x2 = 0.4
  electrical conductivity: 1.613 ± 0.016 S/m
298.2 K, 101 kPa, frequency 6e-05 MHz, x2 = 0.6
  electrical conductivity: 2.61 ± 0.026 S/m
298.2 K, 101 kPa, frequency 6e-05 MHz, x2 = 0.8
  electrical conductivity: 4.1 ± 0.041 S/m
303 K, 100 kPa, x1 = 0.6023
  viscosity: 18.87 ± 0.41 mPa·s
303.15 K, 100 kPa, x1 = 0.0003603
  viscosity: 0.835 ± 0.06 mPa·s
303.15 K, 100 kPa, x1 = 0.0003729
  viscosity: 0.835 ± 0.061 mPa·s
303.15 K, 100 kPa, x1 = 0.0007203
  viscosity: 0.868 ± 0.061 mPa·s
303.15 K, 100 kPa, x1 = 0.0007257
  viscosity: 0.868 ± 0.061 mPa·s
303.15 K, 100 kPa, x1 = 0.00108
  viscosity: 0.904 ± 0.061 mPa·s
303.15 K, 100 kPa, x1 = 0.0011
  viscosity: 0.904 ± 0.061 mPa·s
303.15 K, 100.3 kPa, x1 = 0.0005439
  viscosity: 0.8079 ± 0.0093 mPa·s
303.15 K, 100.3 kPa, x1 = 0.0009901
  viscosity: 0.8166 ± 0.0093 mPa·s
303.15 K, 100.3 kPa, x1 = 0.003018
  viscosity: 0.8426 ± 0.0094 mPa·s
303.15 K, 100.3 kPa, x1 = 0.00501
  viscosity: 0.87 ± 0.0096 mPa·s
303.15 K, 100.3 kPa, x1 = 0.006973
  viscosity: 0.8927 ± 0.0097 mPa·s
303.15 K, 100.3 kPa, x1 = 0.009052
  viscosity: 0.9275 ± 0.0099 mPa·s
303.15 K, 100.3 kPa, x1 = 0.01199
  viscosity: 0.9648 ± 0.01 mPa·s
303.15 K, 100.3 kPa, x1 = 0.01499
  viscosity: 1.006 ± 0.01 mPa·s
303.15 K, 100.3 kPa, x1 = 0.017
  viscosity: 1.034 ± 0.01 mPa·s
303.15 K, 101 kPa, x2 = 0
  viscosity: 74 ± 16 mPa·s
303.15 K, 101 kPa, x2 = 0.06153
  viscosity: 63.1 ± 1.3 mPa·s
303.15 K, 101 kPa, x2 = 0.9252
  electrical conductivity: 5.82 ± 0.35 S/m
303.2 K, 101 kPa, frequency 6e-05 MHz, x2 = 0.2
  electrical conductivity: 1.16 ± 0.012 S/m
303.2 K, 101 kPa, frequency 6e-05 MHz, x2 = 0.4
  electrical conductivity: 1.832 ± 0.018 S/m
303.2 K, 101 kPa, frequency 6e-05 MHz, x2 = 0.6
  electrical conductivity: 2.95 ± 0.03 S/m
303.2 K, 101 kPa, frequency 6e-05 MHz, x2 = 0.8
  electrical conductivity: 4.67 ± 0.047 S/m
308 K, 100 kPa, x1 = 0.6023
  viscosity: 16.04 ± 0.35 mPa·s
308.15 K, 100 kPa, x1 = 3.988e-05
  electrical conductivity: 0.0349 ± 0.00068 S/m
308.15 K, 100 kPa, x1 = 5.584e-05
  electrical conductivity: 0.0437 ± 0.00071 S/m
